Tested on: human skin
Assay: Production of epidermal lipid (total ceramide) on human skin
Format: in vivo
Conditions: 5% test material, 20 μl on human forearm
Method: In order to evaluate the effects of the Scrophularia buergeriana Miq. and Poria cocos Wolf extracts on an increase in the synthesis of lipid on the human skin, the following test was carried out. The composition of the test material consisted of 0.5% of Carbopol ETD 2020, 0.45% of TEA 0.45%, 5% test material and the balance of deionized water. On the forearm of each of 12 adult men and women, a region having a size corresponding to the size of a 50-ml polypropylene conical tube was marked, and then 20 μl of each of control groups, the Scrophularia buergeriana Miq. extract and the Scrophularia buergeriana Miq. extract/Poria cocos Wolf extract mixture was applied on the subjects. Herein, the subjects were divided into two groups, lipids were extracted from the subjects at day 3 and day 11 in the following manner, and the extracted lipid were analyzed. Specifically, the forearm was washed with service water, and then subjected to tape stripping one time with Scotch® 810 Magic tape. Then, 1 ml of a mixture of cyclohexane/ethanol (4:1) was added to the forearm using a 50-ml cut polypropylene conical tube as a reservoir and shaken for about 1 minute, and was then transferred into a fresh tube. […]
After the TLC plate was developed, the size of each band was measured at a wavelength of 570 nm using a TLC Scanner-II densitometer (CAMAG). […]

OCC(O)CO [Glycerin]
production of ceramide relative to the untreated group taken as 100%, 3 days after treatment (3 days after treatment): 102%
production of ceramide relative to the untreated group taken as 100%, 11 days after treatment (11 days after treatment): 94%

Source: patent US8168197B2, “External composition for skin containing Scrophularia buergeriana miq. extract and the use thereof for the skin moisturizing cosmetics” (Amorepacific Corporation, priority 2007, dated 2012)
